pIC50: −log10 of the molar value.
These molecules were tested against T1, human liver FBPase (Homo sapiens, UniProt P09467) (assay: FBPase assay (malachite green phosphate release)). Conditions: recombinant human liver FBPase, 50 μM fructose-1,6-bisphosphate.
T1 construct: made in house; host or cells: E. coli
T1 sequence (P09467 2-338 limits assumed): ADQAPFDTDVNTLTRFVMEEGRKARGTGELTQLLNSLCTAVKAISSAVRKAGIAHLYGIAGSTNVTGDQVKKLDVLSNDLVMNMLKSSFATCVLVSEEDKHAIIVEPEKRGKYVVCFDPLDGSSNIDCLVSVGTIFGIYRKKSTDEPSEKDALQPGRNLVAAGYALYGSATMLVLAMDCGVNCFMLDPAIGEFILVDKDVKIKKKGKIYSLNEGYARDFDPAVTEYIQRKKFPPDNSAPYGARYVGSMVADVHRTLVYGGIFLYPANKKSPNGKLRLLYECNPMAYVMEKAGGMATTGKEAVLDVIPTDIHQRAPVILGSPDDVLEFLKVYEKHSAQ
Assay type: biochemical
In short: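 Recombinant human liver FBPase (E. coli-expressed, heat-treated, purified) reacted with 50 μM fructose-1,6-bisphosphate in pH 7.2 HEPES, 2 mM MgCl2, 1% DMSO, 50 min at room temperature. Released phosphate quantified with malachite green/ammonium molybdate reagent at 620 nm.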

SMILES | pIC50
Cc1cc(S(=O)(=O)NC(=O)Nc2cc(C(F)(F)F)cc(CO)n2)sc1CCO [Compound 106, 5-(2-Hydroxyethyl)-N-{[6-(hydroxymethyl)-4-(trifluoromethyl)pyridin-2-yl]carbamoyl}-4-methylthiophene-2-sulfonamide] | 5.83
CNC(=O)Nc1cc(C(N)=NO)cc(NC(=O)NS(=O)(=O)c2cc(C)c(CCOC)s2)n1 [Compound 107, N′-Hydroxy-2-[({[5-(2-methoxyethyl)-4-methyl-2-thienyl]sulfonyl}carbamoyl)amino]-6-[(methylcarbamoyl)amino]pyridine-4-carboximidamide] | 5.59
COCCc1sc(S(=O)(=O)NC(=O)Nc2cc(C(N)=NO)cc(N)n2)cc1C [Compound 108, 2-Amino-N′-hydroxy-6-[({[5-(2-methoxyethyl)-4-methyl-2-thienyl]sulfonyl}carbamoyl)amino]pyridine-4-carboximidamide] | 4.80
CNC(=O)Nc1cc(-c2noc(C)n2)cc(NC(=O)NS(=O)(=O)c2cc(C)c(CCOC)s2)n1 [Compound 109, 5-(2-Methoxyethyl)-4-methyl-N-({6-[(methylcarbamoyl)amino]-4-(5-methyl-1,2,4-oxadiazol-3-yl)pyridin-2-yl}carbamoyl)thiophene-2-sulfonamide] | 5.73
COCCc1sc(S(=O)(=O)NC(=O)Nc2cc(-c3noc(C)n3)cc(N)n2)cc1C [Compound 110, N-{[6-Amino-4-(5-methyl-1,2,4-oxadiazol-3-yl)pyridin-2-yl]carbamoyl}-5-(2-methoxyethyl)-4-methylthiophene-2-sulfonamide] | 4.79
CC(=O)OCCc1sc(S(=O)(=O)NC(=O)Nc2cc(C(F)(F)F)cc(C)n2)cc1C [Compound 111, 2-{3-methyl-5-[({[6-methyl-4-(trifluoromethyl)pyridin-2-yl]carbamoyl}amino)sulfonyl]-2-thienyl}ethyl acetate] | 6.46
COCCc1sc(S(=O)(=O)NC(=O)Nc2cc(SC)cc(C(N)=O)n2)cc1C [Compound 112, 6-[({[5-(2-Methoxyethyl)-4-methyl-2-thienyl]sulfonyl}carbamoyl)amino]-4-(methylthio)pyridine-2-carboxamide] | 6.10
CNC(=O)c1cc(SC)cc(NC(=O)NS(=O)(=O)c2cc(C)c(CCOC)s2)n1 [Compound 113, 6-[({[5-(2-Methoxyethyl)-4-methyl-2-thienyl]sulfonyl}carbamoyl)amino]-N-methyl-4-(methylthio)pyridine-2-carboxamide] | 6.08

Now from value to molecule:

pIC50 | SMILES
6.29 | Cc1cc(C(F)(F)F)cc(NC(=O)NS(=O)(=O)c2cc(C)c(CCO)s2)n1 [Compound 114, 5-(2-Hydroxyethyl)-4-methyl-N-{[6-methyl-4-(trifluoromethyl)pyridin-2-yl]carbamoyl}thiophene-2-sulfonamide]
5.56 | COCCc1sc(S(=O)(=O)NC(=O)Nc2cc(SC)cc(C(N)=NO)n2)cc1C [Compound 115, N′-Hydroxy-6-[({[5-(2-methoxyethyl)-4-methyl-2-thienyl]sulfonyl}carbamoyl)amino]-4-(methylthio)pyridine-2-carboximidamide]
5.83 | COCCc1sc(S(=O)(=O)NC(=O)Nc2cc(OC)cc(-c3noc(C)n3)n2)cc1C [Compound 116]
5.79 | COCCc1sc(S(=O)(=O)NC(=O)Nc2cc(SC)cc(-c3noc(C)n3)n2)cc1C [Compound 117, 5-(2-methoxyethyl)-4-methyl-N-{[6-(5-methyl-1,2,4-oxadiazol-3-yl)-4-(methylthio)pyridin-2-yl]carbamoyl}thiophene-2-sulfonamide]
5.64 | COCCc1sc(S(=O)(=O)NC(=O)Nc2cc(OC)cc(C(=O)OC)n2)cc1C [Compound 118, Methyl-6-[({[5-(2-methoxyethyl)-4-methyl-2-thienyl]sulfonyl}carbamoyl)amino]-4-(methoxy)pyridine-2-carboxylate]
5.32 | COCCc1sc(S(=O)(=O)NC(=O)Nc2cc(OC)cc(C(N)=O)n2)cc1C [Compound 119, 6-[({[5-(2-Methoxyethyl)-4-methyl-2-thienyl]sulfonyl}carbamoyl)amino]-4-(methoxy)pyridine-2-carboxamide]
6.08 | Cc1cc(C(F)(F)F)cc(NC(=O)NS(=O)(=O)c2csc(C)c2)n1 [Compound 120, 5-Methyl-N-{[6-methyl-4-(trifluoromethyl)pyridin-2-yl]carbamoyl}thiophene-3-sulfonamide]
5.93 | Cc1cc(C(F)(F)F)cc(NC(=O)NS(=O)(=O)c2ccc(C)s2)n1 [Compound 121, 5-Methyl-N-{[6-methyl-4-(trifluoromethyl)pyridin-2-yl]carbamoyl}thiophene-2-sulfonamide]
6.14 | Cc1csc(S(=O)(=O)NC(=O)Nc2cc(C(F)(F)F)cc(C)n2)c1 [Compound 122, 4-Methyl-N-{[6-methyl-4-(trifluoromethyl)pyridin-2-yl]carbamoyl}thiophene-2-sulfonamide]

Source: US8163778B2 (Hoffmann-LA Roche Inc., priority 2007, dated 2012)
